The record followed here is article PMC7555312, “Functional Characterization of Temporin-SHe, a New Broad-Spectrum Antibacterial and Leishmanicidal Temporin-SH Paralog from the Sahara Frog (Pelophylax saharicus)” (International Journal of Molecular Sciences, 2020).

Where no end group is shown, it is not given here. Where only a bound is given, the exact number is not on record here.

Experiment [1] has as its system E. coli ATCC 25922. In kind it is cell-based, Escherichia coli.
Protocol: (§3) Antifungal activity was evaluated against C. albicans (ATCC 90028), C. parapsilosis (ATCC 22019) and S. cerevisiae.
(§4) Antimicrobial activity was assessed with a liquid growth inhibition assay performed according to a previously described protocol [14] using the Clinical and Laboratory Standards Institute (CLSI) guidelines. Briefly, in 96-well microtitration plates, mid-log-phase bacteria diluted to 10^6 CFU/mL in Mueller–Hinton (MH) broth were added to different concentrations of synthetic temporin-SHe (1–200 µM, final concentrations) and incubated at 37 °C for 18–20 h, under shaking (150 rpm). For E. faecalis, L. ivanovii and yeasts/fungi, 10^6 CFU/mL suspensions were prepared in LB broth, brain heart infusion (BHI) medium and Yeast Peptone Dextrose (YPD) medium, respectively, and incubation was performed at 30 °C for yeasts/fungi. […] MIC values represent the average of three independent experiments, each performed in triplicate with negative (no peptide) and positive (formaldehyde 0.7%) controls.
A further experiment has as its system E. coli ATCC 35218. In kind it is cell-based, Escherichia coli.
A further experiment relates to E. coli ML-35p. In kind it is cell-based, Escherichia coli. The following applies: liquid growth inhibition (CLSI), 10^6 CFU/mL in MH broth, 37 °C, 18–20 h, OD 630 nm; mean of three independent experiments in triplicate.
The next experiment deals with P. aeruginosa ATCC 27853. In kind it is cell-based, Pseudomonas aeruginosa.
A further experiment has as its system A. baumannii ATCC 19606. In kind it is cell-based, Acinetobacter baumannii.
A further experiment has as its system K. pneumoniae ATCC 13883. In kind it is cell-based, Klebsiella pneumoniae.
The test system of experiment [2] is S. aureus ATCC 25923. In kind it is cell-based, Staphylococcus aureus.
Protocol: as §4
The subject of experiment [3] is S. aureus ST1065. In kind it is cell-based, Staphylococcus aureus.
For a further experiment, the system named is B. megaterium. In kind it is cell-based, Bacillus megaterium.
The next experiment has as its system C. albicans ATCC 90028. In kind it is cell-based, Candida albicans.
The subject of experiment [4] is C. parapsilosis ATCC 22019. In kind it is cell-based, Candida parapsilosis.
Protocol: as §3, §4
Another experiment deals with S. cerevisiae. In kind it is cell-based, Saccharomyces cerevisiae.
The test system of experiment [5] is L. infantum promastigotes (strain MHOM/MA/67/ITMAP-263). In kind it is cell-based, Leishmania infantum. The following applies: 72 h, 26 °C. As to the method:
(§1) Antileishmanial activity of temporin-SHe was analyzed by a luminescence-based growth inhibition method using Leishmania promastigotes transfected with the vector pGMαNEOαLUC containing the gene LUC that codes for the firefly luciferase, cultured at 26 °C in SDM-79 medium supplemented with 10% fetal calf serum (Gibco), as previously described. Mid-log-phase promastigotes (1.25 × 10^6 cells/mL) were added in 96-well plates containing different concentrations of synthetic temporin-SHe (3.125–50 µM, final concentrations), and incubated 72 h at 26 °C. […] IC50 was determined with GraphPad Prism® 6.0 software (GraphPad Software, La Jolla, CA, USA) using a sigmoidal dose–response curve fitting equation.

In experiment [6] the test system is L. braziliensis promastigotes (strain MHOM/BR/75/M2904). In kind it is cell-based, Leishmania braziliensis. The following applies: 72 h, 26 °C. As to the method: as §1
Experiment [7] concerns L. major promastigotes (strain MHOM/SU/73/5-ASKH). In kind it is cell-based, Leishmania major. The following applies: 72 h, 26 °C. As to the method: as §1
Experiment [8] deals with S. aureus ATCC 25923. The experiment can be described thus: Membrane depolarization assay, DiSC3(5). Particulars: peptide at 2-fold MIC; 10^7 cfu/mL in PBS, 1 µM DiSC3(5), 37 °C, 20 min recording; representative of three assays. In kind it is cell-based, Staphylococcus aureus. As to the method:
The depolarization of S. aureus ATCC 25923 cytoplasmic membrane induced by temporin-SHe and temporin-SHd was investigated using the membrane potential-sensitive cyanine dye DiSC3(5) (3,3′-dipropylthiadicarbocyanine iodide), as detailed in [29]. An amount of 700 µL of bacteria resuspended in PBS (10^7 cfu/mL) containing 1 μM DiSC3(5) were preincubated in the dark during 10 min at 37 °C, and then 100 µL of 1 mM KCl were added to the mixture. Fluorescence (λex = 622 nm; λem = 670 nm) was recorded during 20 min at 37 °C (Varian Cary Eclipse fluorescence spectrophotometer) after addition of the peptide (200 µL, final concentration: 2-fold above the MIC). Three independent experiments were performed and the results correspond to a representative experiment with negative (PBS) and positive (melittin) controls.

For experiment [9], the system named is S. aureus ST1065. Description: Membrane permeabilization assay (ONPG hydrolysis). The following applies: increasing peptide concentrations, 2.5 mM ONPG in PBS, 37 °C. In kind it is cell-based, Staphylococcus aureus. As to the method:
The ability of temporin-SHe to permeabilize bacterial cytoplasmic membrane was determined using the Gram-negative strain E. coli ML-35p and the Gram-positive strain S. aureus ST1065, as described. Briefly, after incubation of bacteria (37 °C) in 96-well plates with PBS containing 2.5 mM o-nitrophenyl-β-D-galactopyranoside (ONPG) and different concentrations of temporin-SHe, the production of o-nitrophenol (ONP) resulting from hydrolysis of ONPG by intracytoplasmic β-galactosidase was monitored at 405 nm according to the time (Fluostar Galaxy plate reader, BMG Labtech, Champigny-sur-Marne, France). Wells containing bacteria and ONPG, with no peptide, were used as negative control. Two independent experiments were performed in triplicate. Results are from a representative experiment and were expressed as the mean ± S.D.

Experiment [10] relates to S. aureus ST1065. Description: Time-killing assay. Particulars: two-fold MIC (6.25 µM temporin-SHe), 10^6 cfu/mL in PBS, plate counting. In kind it is cell-based, Staphylococcus aureus. How it is done: (§2) Aliquots were withdrawn at different times and spread onto LB agar plates for cell counting after overnight incubation at 37 °C. Controls corresponding to the bacterial suspensions without peptide were also run. Two independent experiments were performed in triplicate. Results were expressed as the mean ± S.D. of a representative experiment.

For experiment [11], the system named is E. coli ATCC 25922. Description: Time-killing assay. In kind it is cell-based, Escherichia coli. Particulars: two-fold MIC (50 µM temporin-SHe), 10^6 cfu/mL in PBS, plate counting. How it is done:
as §2

The test system of the next experiment is E. coli strains. In kind it is cell-based, Escherichia coli.
The mark [12] stands for this setting: luciferase-expressing promastigotes 1.25 × 10^6 cells/mL, Steady-Glo, mean of three independent experiments in triplicate.
The mark [13] stands for this setting: peptide 12.5 µM, promastigotes, mean of three independent assays in triplicates.

Protocol for A. baumannii ATCC 19606: as §4
Protocol for B. megaterium: as §3, §4
Protocol for C. albicans ATCC 90028: as §3, §4
Protocol for E. coli ATCC 35218: as §3, §4
Protocol for E. coli ML-35p: as §3, §4
Protocol for E. coli strains: as §3, §4
Protocol for K. pneumoniae ATCC 13883: as §4
Protocol for P. aeruginosa ATCC 27853: as §3, §4
Protocol for S. cerevisiae: as §3, §4

As usually defined, the MIC is the lowest concentration that inhibits growth of the organism. Lower therefore signals inhibition by little substance. For orientation: IC50 means the concentration that gives 50% inhibition. A high value points to weaker potency in that assay. Consider FLPALAGIAGLLGKIF-NH2 [Temporin-SHe], for which the MIC came to 25 µM against E. coli ATCC 25922 [1]; 50 µM in the experiment on E. coli ATCC 35218; 50 µM with E. coli ML-35p; 60 µM in the experiment with P. aeruginosa ATCC 27853; 25 µM in the experiment with A. baumannii ATCC 19606; 100 µM against K. pneumoniae ATCC 13883. Further, the MIC against S. aureus ATCC 25923 [2] is reported as 3.12 µM; against S. aureus ST1065 [3] it was 3.12 µM; against B. megaterium it was 1.56 µM; with C. albicans ATCC 90028 it was >100 µM; in [4] it was 50 µM; against S. cerevisiae it was 12.5 µM. The IC50 was determined as 4.6 µM in experiment [5] (setting [12]), 10.5 µM in [6] (setting [12]) and 11.6 µM in experiment [7] (setting [12]). Further, the “inhibition of L. infantum growth” value in experiment [5] (peptide 3.12 µM, promastigotes, mean of three independent assays in triplicates) turned out to be 42%. Further, the “Leishmania growth inhibition (L. braziliensis)” value in experiment [6] (setting [13]) was 87%. Further, the “Leishmania growth inhibition (L. major)” value in experiment [7] (setting [13]) was determined as 85%. In addition, in the experiment with S. aureus ATCC 25923 [8], the “membrane depolarization (DiSC3(5) fluorescence increase)” value is “instantaneous”. In addition, the “cytoplasmic membrane permeabilization (ONP production, A405)” value in the experiment with S. aureus ST1065 [9] was “time- and concentration-dependent manner”. The “time to complete killing” value in the experiment with S. aureus ST1065 [10] was ≤ 5 min. The “time to total killing” value in the experiment with E. coli ATCC 25922 [11] came to 90 min. Also, in the experiment on E. coli strains, the MIC range is 25 to 50 µM.
